Test results as given in patent US20250101041A1, “POSITIVE ALLOSTERIC MODULATORS OF THE MUSCARINIC ACETYLCHOLINE RECEPTOR M4” (Vanderbilt University, priority 2022, published 2025).

Target: T1, human mAChR M4 (Homo sapiens, UniProt P08173)
T1 construct: expressed in transfected cells; host or cells: CHO-K1 (American Type Culture Collection), stably expressing hM4 and Gqi5
T1 sequence (P08173 1-479): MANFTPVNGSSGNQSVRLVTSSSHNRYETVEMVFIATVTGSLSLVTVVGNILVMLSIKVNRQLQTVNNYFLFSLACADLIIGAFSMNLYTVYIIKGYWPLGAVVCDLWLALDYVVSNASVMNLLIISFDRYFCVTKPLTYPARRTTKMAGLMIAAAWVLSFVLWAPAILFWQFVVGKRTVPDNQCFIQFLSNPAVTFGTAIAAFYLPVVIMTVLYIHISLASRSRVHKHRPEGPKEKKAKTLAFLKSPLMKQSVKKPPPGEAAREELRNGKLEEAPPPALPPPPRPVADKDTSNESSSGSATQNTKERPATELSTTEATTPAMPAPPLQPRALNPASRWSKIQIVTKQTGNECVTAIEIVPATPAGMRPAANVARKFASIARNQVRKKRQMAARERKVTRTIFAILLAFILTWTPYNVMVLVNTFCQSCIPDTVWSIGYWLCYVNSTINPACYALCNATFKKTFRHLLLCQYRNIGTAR
Experiment: mAChR M4 cell-based functional assay: calcium mobilization (Fluo-4, FDSS), potentiation of EC20 acetylcholine response in hM4-Gqi5 CHO-K1 cells
Conditions: human M4; for Emax at 30 µM: CHO-K1, % ACh maximum at 30 μM; for EC50: potentiation of EC20 acetylcholine response, calcium mobilization
Procedure, shortened: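 Readout is the fluorescence-ratio rise at 1 Hz on FDSS, with PAM activity taken as concentration-dependent enhancement of the EC20 acetylcholine response, fitted four-parameter for EC50/Emax. hM4-Gqi5 CHO-K1 cells carried Fluo-4 AM dye; test compounds (11 points, 1:3) preceded EC20 acetylcholine additions at 144 s and 230 s.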

SMILES	Emax at 30 µM [%]	EC50 [nM]
Cc1cc(=O)n2nc(N3CCc4ncc(-c5ccco5)cc4C3)c(C)cc2n1 [Compound 1-301, 7-(3-(furan-2-yl)-7,8-dihydro-1,6-naphthyridin-6(5H)-yl)-2,8-dimethyl-4H-pyrimido[1,2-b]pyridazin-4-one]	91	111
Cc1cc2nccc(=O)n2nc1N1CCc2ncc(Nc3cccc(F)c3)cc2C1 [Compound 2-79, 7-(3-((3-fluorophenyl)amino)-7,8-dihydro-1,6-naphthyridin-6(5H)-yl)-8-methyl-4H-pyrimido[1,2-b]pyridazin-4-one]	99	20
[2H]C1([2H])Cc2ncc(Nc3ccccc3F)cc2C([2H])([2H])N1c1nn2c(=O)ccnc2cc1C [Compound 2-166, 7-(3-((2-fluorophenyl)amino)-7,8-dihydro-1,6-naphthyridin-6(5H)-yl-5,5,7,7-d4)-8-methyl-4H-pyrimido[1,2-b]pyridazin-4-one]	84	2
COc1ccc(-c2cnc3c(c2)CN(c2nn4c(=O)ccnc4cc2C)CC3)c(C)n1 [Compound 1-426, 7-(3-(6-methoxy-2-methylpyridin-3-yl)-7,8-dihydro-1,6-naphthyridin-6(5H)-yl)-8-methyl-4H-pyrimido[1,2-b]pyridazin-4-one]	84	348
Cc1c(N2CCc3ncc(-c4ccccc4Cl)cc3C2)nn2c(=O)ccnc2c1C [Compound 1-267, 7-(3-(2-chlorophenyl)-7,8-dihydro-1,6-naphthyridin-6(5H)-yl)-8,9-dimethyl-4H-pyrimido[1,2-b]pyridazin-4-one]	89	183
Cc1cc2nccc(=O)n2nc1N1CCc2ncc(-c3cccnc3F)cc2C1 [Compound 1-58, 7-(3-(2-fluoropyridin-3-yl)-7,8-dihydro-1,6-naphthyridin-6(5H)-yl)-8-methyl-4H-pyrimido[1,2-b]pyridazin-4-one]	88	397
Cc1cc(=O)n2nc(N3CCc4ncc(-c5ccc(C6CC6)nc5)cc4C3)c(C)cc2n1 [Compound 1-72, 7-(3-(6-cyclopropylpyridin-3-yl)-7,8-dihydro-1,6-naphthyridin-6(5H)-yl)-2,8-dimethyl-4H-pyrimido[1,2-b]pyridazin-4-one]	75	174
Cc1ccccc1Nc1cnc2c(c1)CN(c1nn3c(=O)ccnc3cc1C)CC2 [Compound 2-75, 8-methyl-7-(3-(o-tolylamino)-7,8-dihydro-1,6-naphthyridin-6(5H)-yl)-4H-pyrimido[1,2-b]pyridazin-4-one]	93	17
Cc1c(N2CCc3ncc(C4CCOCC4)cc3C2)nn2c(=O)ccnc2c1C [Compound 1-429, 8,9-Dimethyl-7-(3-(tetrahydro-2H-pyran-4-yl)-7,8-dihydro-1,6-naphthyridin-6(5H)-yl)-4H-pyrimido[1,2-b]pyridazin-4-one]	91	901
COc1cc(Nc2cnc3c(c2)CN(c2nn4c(=O)ccnc4cc2C)CC3)ccn1 [Compound 2-141, 7-(3-((2-methoxypyridin-4-yl)amino)-7,8-dihydro-1,6-naphthyridin-6(5H)-yl)-8-methyl-4H-pyrimido[1,2-b]pyridazin-4-one]	100	21
COCc1cc(=O)n2nc(N3CCc4ncc(-c5cccc(F)c5)cc4C3)c(C)cc2n1 [Compound 1-358, 7-(3-(3-fluorophenyl)-7,8-dihydro-1,6-naphthyridin-6(5H)-yl)-2-(methoxymethyl)-8-methyl-4H-pyrimido[1,2-b] pyridazin-4-one]	83	337
COc1cncc(-c2cnc3c(c2)CN(c2nn4c(=O)ccnc4cc2C)CC3)c1 [Compound 1-52, 7-(3-(5-methoxypyridin-3-yl)-7,8-dihydro-1,6-naphthyridin-6(5H)-yl)-8-methyl-4H-pyrimido[1,2-b]pyridazin-4-one]	47	232
Cc1cc(F)ncc1-c1cnc2c(c1)CN(c1nn3c(=O)ccnc3cc1C)CC2 [Compound 1-398, 7-(3-(6-fluoro-4-methylpyridin-3-yl)-7,8-dihydro-1,6-naphthyridin-6(5H)-yl)-8-methyl-4H-pyrimido[1,2-b]pyridazin-4-one]	93	169
COc1cc(C)c(-c2cnc3c(c2)CN(c2nn4c(=O)cc(C)nc4cc2C)CC3)cn1 [Compound 1-285, 7-(3-(6-methoxy-4-methylpyridin-3-yl)-7,8-dihydro-1,6-naphthyridin-6(5H)-yl)-2,8-dimethyl-4H-pyrimido[1,2-b]pyridazin-4-one]	89	552
Cc1cc(=O)n2nc(N3CCc4ncc(-c5cc(F)c(F)cc5F)cc4C3)c(C)c(C)c2n1 [Compound 1-200, 2,8,9-trimethyl-7-(3-(2,4,5-trifluorophenyl)-7,8-dihydro-1,6-naphthyridin-6(5H)-yl)-4H-pyrimido[1,2-b] pyridazin-4-one]	84	531
COCc1cc(=O)n2nc(N3CCc4ncc(-c5cc(F)ncc5F)cc4C3)c(C)cc2n1 [Compound 1-320, 7-(3-(2,5-difluoropyridin-4-yl)-7,8-dihydro-1,6-naphthyridin-6(5H)-yl)-2-(methoxymethyl)-8-methyl-4H-pyrimido[1,2-b] pyridazin-4-one]	77	1470
Cc1c(N2CCc3ncc(-c4cnn(C)c4)cc3C2)nn2c(=O)ccnc2c1C [Compound 1-62, 8,9-dimethyl-7-(3-(1-methyl-1H-pyrazol-4-yl)-7,8-dihydro-1,6-naphthyridin-6(5H)-yl)-4H-pyrimido[1,2-b]pyridazin-4-one]	89	128
Cc1ncccc1-c1cnc2c(c1)CN(c1nn3c(=O)ccnc3c(C)c1C)CC2 [Compound 1-101, 8,9-dimethyl-7-(3-(2-methylpyridin-3-yl)-7,8-dihydro-1,6-naphthyridin-6(5H)-yl)-4H-pyrimido[1,2-b]pyridazin-4-one]	93	332
CCn1cc(-c2cnc3c(c2)CN(c2nn4c(=O)cc(C)nc4cc2C)CC3)cn1 [Compound 1-219, 7-(3-(1-ethyl-1H-pyrazol-4-yl)-7,8-dihydro-1,6-naphthyridin-6(5H)-yl)-2,8-dimethyl-4H-pyrimido[1,2-b]pyridazin-4-one]	80	341
Cc1c(N2CCc3ncc(-c4cncnc4)cc3C2)nn2c(=O)cc(C(F)F)nc2c1C [Compound 1-159, 2-(difluoromethyl)-8,9-dimethyl-7-(3-(pyrimidin-5-yl)-7,8-dihydro-1,6-naphthyridin-6(5H)-yl)-4H-pyrimido[1,2-b]pyridazin-4-one]	86	3060
COCc1cc(=O)n2nc(N3CCc4ncc(-c5cccs5)cc4C3)c(C)cc2n1 [Compound 1-367, 2-(methoxymethyl)-8-methyl-7-(3-(thiophen-2-yl)-7,8-dihydro-1,6-naphthyridin-6(5H)-yl)-4H-pyrimido[1,2-b] pyridazin-4-one]	71	141
Cc1cc(=O)n2nc(N3CCc4ncc(NCC5CCCOC5)cc4C3)c(C)c(C)c2n1 (centres unmarked) [Compound 2-44, 2,8,9-trimethyl-7-(3-(((tetrahydro-2H-pyran-3-yl)methyl)amino)-7,8-dihydro-1,6-naphthyridin-6(5H)-yl)-4H-pyrimido[1,2-b]pyridazin-4-one]	65	611
